Laboratory results: PubChem BioAssay AID2060495 (Molecular Pharmacology Branch, DTP, NCI, 2025)

Test system: 521955-158-R2-J5-PDC complex spheroid viability
Assay: Anticancer human tumor 521955-158-R2-J5-PDC patient-derived pancreatic carcinoma cell line growth inhibition [GQUAD]
Conditions: for IC50: curve of first compound; for viability, T/C: stronger effect = lower value
In short: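 Viability of tumor cells grown as complex spheroids with endothelial and stromal cells, exposed to drug combinations. Top concentration at or near clinical Cmax (else 10 microM), diluted in half-log increments.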

[1] = second compound 0.0316 µM, first compound 0.0316 µM
[2] = second compound 0.0316 µM, first compound 0.1 µM
[3] = second compound 0.0316 µM, first compound 0.316 µM
[4] = second compound 0.0316 µM, first compound 1 µM
[5] = second compound 0.0316 µM, first compound 3.16 µM
[6] = second compound 0.0316 µM, first compound 10 µM
[7] = second compound 0.1 µM, first compound 0.0316 µM
[8] = second compound 0.1 µM, first compound 0.1 µM
[9] = second compound 0.1 µM, first compound 0.316 µM
[10] = second compound 0.1 µM, first compound 1 µM
[11] = second compound 0.1 µM, first compound 3.16 µM
[12] = second compound 0.1 µM, first compound 10 µM
[13] = second compound 0.316 µM, first compound 0.0316 µM
[14] = second compound 0.316 µM, first compound 0.1 µM
[15] = second compound 0.316 µM, first compound 0.316 µM
[16] = second compound 0.316 µM, first compound 1 µM
[17] = second compound 0.316 µM, first compound 3.16 µM
[18] = second compound 0.316 µM, first compound 10 µM
[19] = second compound 1 µM, first compound 0.0316 µM
[20] = second compound 1 µM, first compound 0.1 µM
[21] = second compound 1 µM, first compound 0.316 µM
[22] = second compound 1 µM, first compound 1 µM
[23] = second compound 1 µM, first compound 3.16 µM
[24] = second compound 1 µM, first compound 10 µM
[25] = second compound 3.16 µM, first compound 0.0316 µM
[26] = second compound 3.16 µM, first compound 0.1 µM
[27] = second compound 3.16 µM, first compound 0.316 µM
[28] = second compound 3.16 µM, first compound 1 µM
[29] = second compound 3.16 µM, first compound 3.16 µM
[30] = second compound 3.16 µM, first compound 10 µM
[31] = second compound 10 µM, first compound 0.0316 µM
[32] = second compound 10 µM, first compound 0.1 µM
[33] = second compound 10 µM, first compound 0.316 µM
[34] = second compound 10 µM, first compound 1 µM
[35] = second compound 10 µM, first compound 3.16 µM
[36] = second compound 10 µM, first compound 10 µM
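Note: spheroids exposed to agents for one week before reading.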
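Throughout, for viability, T/C: 100% = DMSO vehicle control viability.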

CC(C)(O)C1CCC(Nc2ccc3ncc(-c4cccc(C(F)(F)F)c4)n3n2)CC1 (centres undefined) + CN(C)c1ccc(Nc2c3ccc(NC(=O)CCN4CCCC4)cc3nc3cc(NC(=O)CCN4CCCC4)ccc23)cc1
IC50 (second compound 0.0316 µM): 2.06 µM | IC50 (second compound 0.1 µM): 2.01 µM | IC50 (second compound 0.316 µM): 2.05 µM | IC50 (second compound 1 µM): 2.01 µM | IC50 (second compound 3.16 µM): 1.8 µM | IC50 (second compound 10 µM): 1.28 µM | viability, T/C [1]: 102% | viability, T/C [2]: 107% | viability, T/C [3]: 105% | viability, T/C [4]: 111% | viability, T/C [5]: 13.1% | viability, T/C [6]: 19.7% | viability, T/C [7]: 101% | viability, T/C [8]: 103% | viability, T/C [9]: 98.5% | viability, T/C [10]: 117% | viability, T/C [11]: 10.4% | viability, T/C [12]: 18.7% | viability, T/C [13]: 106% | viability, T/C [14]: 88% | viability, T/C [15]: 113% | viability, T/C [16]: 113% | viability, T/C [17]: 16.1% | viability, T/C [18]: 17.5% | viability, T/C [19]: 95.4% | viability, T/C [20]: 107% | viability, T/C [21]: 95.8% | viability, T/C [22]: 116% | viability, T/C [23]: 15.1% | viability, T/C [24]: 13.6% | viability, T/C [25]: 82% | viability, T/C [26]: 87.3% | viability, T/C [27]: 79.2% | viability, T/C [28]: 99.5% | viability, T/C [29]: 13.8% | viability, T/C [30]: 15% | viability, T/C [31]: 70.4% | viability, T/C [32]: 73.1% | viability, T/C [33]: 64.6% | viability, T/C [34]: 62.2% | viability, T/C [35]: 6.61% | viability, T/C [36]: 1.12%

C=CC(=O)N1CCN(c2nc(=O)n(-c3c(C)ccnc3C(C)C)c3nc(-c4c(O)cccc4F)c(F)cc23)C(C)C1 (centres undefined) + Cc1[nH]c2ccc(F)cc2c1-c1nc2c3cccnc3c3ncccc3c2[nH]1
IC50 (second compound 0.0316 µM): > 10 µM | IC50 (second compound 0.1 µM): > 10 µM | IC50 (second compound 0.316 µM): > 10 µM | IC50 (second compound 1 µM): > 10 µM | IC50 (second compound 3.16 µM): > 10 µM | IC50 (second compound 10 µM): > 10 µM | viability, T/C [1]: 90.3% | viability, T/C [2]: 101% | viability, T/C [3]: 97.7% | viability, T/C [4]: 94.3% | viability, T/C [5]: 124% | viability, T/C [6]: 67.2% | viability, T/C [7]: 93% | viability, T/C [8]: 106% | viability, T/C [9]: 117% | viability, T/C [10]: 102% | viability, T/C [11]: 102% | viability, T/C [12]: 74.8% | viability, T/C [13]: 80.9% | viability, T/C [14]: 96.9% | viability, T/C [15]: 106% | viability, T/C [16]: 104% | viability, T/C [17]: 100% | viability, T/C [18]: 77.9% | viability, T/C [19]: 92.9% | viability, T/C [20]: 102% | viability, T/C [21]: 107% | viability, T/C [22]: 110% | viability, T/C [23]: 128% | viability, T/C [24]: 93.2% | viability, T/C [25]: 93.9% | viability, T/C [26]: 105% | viability, T/C [27]: 98% | viability, T/C [28]: 118% | viability, T/C [29]: 121% | viability, T/C [30]: 79.4% | viability, T/C [31]: 98.2% | viability, T/C [32]: 98.3% | viability, T/C [33]: 118% | viability, T/C [34]: 129% | viability, T/C [35]: 129% | viability, T/C [36]: 101%
